Laboratory results taken from patent publication US9163256B2, “Mutant receptors and their use in a nuclear receptor-based inducible gene expression system” (priority 2004, dated 2015).
pEC50: −log10 of the molar value.

What was measured:
CfEcR-DEF mutant L132N = assay: GAL4-driven luciferase reporter assay in NIH3T3 cells; type: cell-based, Choristoneura fumiferana
Protocol: (§1) This construct was prepared in the same way as in switch 1.1 above except wild-type CfEcR-DEF was replaced with mutant CfEcR-DEF comprising a ligand binding domain comprising a substitution mutation selected from Table 1 below.
(§2) DNAs were transfected into mouse NIH3T3 cells (ATCC) as follows. Standard methods for culture and maintenance of the cells were followed. Cells were harvested and plated 96-well plates at 2,500 cells per well, in 50 μL of growth medium containing 10% fetal bovine serum (FBS). Twenty-four hours later, the cells were treated with 35 μL of serum-free growth medium containing either dimethylsulfoxide (DMSO; control) or a DMSO solution of ligand. The cells were then transfected using Superfect (Qiagen Inc.) transfection reagent. For each well, 0.625 μL of Superfect was mixed with 14.2 μL of serum-free growth medium. 0.16 μg of reporter construct and 0.04 μg of each receptor construct were added to the transfection reagent mix. The contents of the transfection mix were mixed in a vortex mixer and let stand at room temperature for 30 minutes. At the end of incubation, 15 μL of transfection mix was added to the cells. The cells were maintained at 37° C. and 5% CO2 for 48 hours in 5% FBS.
(§3) Reporter Assays: Cells were harvested 40 hours after adding ligands. 125 μL of passive lysis buffer (part of Dual-Luciferase reporter assay system from Promega Corporation) were added to each well of the […] plate. The plates were placed on a rotary shaker for 15 minutes. Twenty μL of lysate were assayed. Luciferase activity was measured using Dual-Luciferase reporter assay system from Promega Corporation following the manufacturer's instructions. Fold induction (FI) activities were calculated by dividing relative light units (“RLU”) in ligand treated cells with RLU in DMSO treated cells (untreated control).

CfEcR-DEF mutant F109P = assay: as above; type: cell-based, Choristoneura fumiferana
Protocol: as §1, §2, §3

CfEcR-DEF mutant I51N = assay: as above; type: cell-based, Choristoneura fumiferana
Protocol: as §1, §2, §3

CfEcR-DEF mutant T52W = CfEcR-DEF mutant T52W (Choristoneura fumiferana, UniProt O77255, T335W); assay: as above; type: cell-based
CfEcR-DEF mutant T52W, sequence (O77255 entry or part of it T335W): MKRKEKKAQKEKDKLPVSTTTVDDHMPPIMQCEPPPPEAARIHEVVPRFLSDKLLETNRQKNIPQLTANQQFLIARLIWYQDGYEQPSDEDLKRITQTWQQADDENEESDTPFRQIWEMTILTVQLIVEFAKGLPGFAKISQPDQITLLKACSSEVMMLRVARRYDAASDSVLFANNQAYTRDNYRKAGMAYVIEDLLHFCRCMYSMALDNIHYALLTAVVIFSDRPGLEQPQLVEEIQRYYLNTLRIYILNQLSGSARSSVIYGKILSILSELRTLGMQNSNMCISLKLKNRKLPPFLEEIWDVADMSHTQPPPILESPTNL
CfEcR-DEF mutant T52W, sequence (P28702 299-449, further chain): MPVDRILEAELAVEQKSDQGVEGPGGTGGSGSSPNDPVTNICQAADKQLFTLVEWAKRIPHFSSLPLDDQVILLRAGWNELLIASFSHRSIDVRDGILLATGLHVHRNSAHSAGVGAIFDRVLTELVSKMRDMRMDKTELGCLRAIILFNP
In short: (§4)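 Mouse NIH3T3 cells were treated with ligand in DMSO, then transfected with GAL4 luciferase reporter (0.16 μg/well) plus mutant CfEcR-DEF receptor constructs (0.04 μg each/well). Cells were kept at 37° C in 5% FBS and lysed 40 hours after ligand addition for dual-luciferase measurement. Fold induction = ligand RLU ÷ DMSO RLU.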

CfEcR-DEF mutant M219W = CfEcR-DEF mutant M219W (Choristoneura fumiferana, UniProt O77255, M502W); assay: as above; type: cell-based
CfEcR-DEF mutant M219W, sequence (P28702 299-449): as the sequence (P28702 299-449, further chain) above
CfEcR-DEF mutant M219W, sequence (O77255 entry or part of it M502W): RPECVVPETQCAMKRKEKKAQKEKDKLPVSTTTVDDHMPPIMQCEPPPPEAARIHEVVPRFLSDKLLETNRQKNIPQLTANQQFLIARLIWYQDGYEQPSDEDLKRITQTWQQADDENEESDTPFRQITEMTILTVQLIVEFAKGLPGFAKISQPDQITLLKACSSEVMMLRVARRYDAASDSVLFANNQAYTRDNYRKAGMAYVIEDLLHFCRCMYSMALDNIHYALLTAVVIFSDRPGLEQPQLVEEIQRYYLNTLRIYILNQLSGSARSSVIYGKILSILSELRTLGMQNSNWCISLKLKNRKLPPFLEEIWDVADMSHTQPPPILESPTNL
In short: as §4

CfEcR-DEF mutant F48R = CfEcR-DEF mutant F48R (Choristoneura fumiferana, UniProt O77255, F331R); assay: as above; type: cell-based
CfEcR-DEF mutant F48R, sequence (O77255 entry or part of it F331R): as the sequence (O77255 entry or part of it M502W) above, with F125R, W296M counted along it
CfEcR-DEF mutant F48R, sequence (P28702 299-449, further chain): as the sequence (P28702 299-449, further chain) above
In short: as §4

CfEcR-DEF mutant M125N = CfEcR-DEF mutant M125N (Choristoneura fumiferana, UniProt O77255, M408N); assay: as above; type: cell-based
CfEcR-DEF mutant M125N, sequence (O77255 entry or part of it M408N): as the sequence (O77255 entry or part of it T335W) above, with W117T, M190N counted along it
CfEcR-DEF mutant M125N, sequence (P28702 299-449, further chain): as the sequence (P28702 299-449, further chain) above
In short: as §4

CfEcR-DEF mutant M219K = CfEcR-DEF mutant M219K (Choristoneura fumiferana, UniProt O77255, M502K); assay: as above; type: cell-based
CfEcR-DEF mutant M219K, sequence (P28702 299-449): as the sequence (P28702 299-449, further chain) above
CfEcR-DEF mutant M219K, sequence (O77255 entry or part of it M502K): as the sequence (O77255 entry or part of it M502W) above, with W296K counted along it
In short: as §4

CfEcR-DEF mutant T52Q = CfEcR-DEF mutant T52Q (Choristoneura fumiferana, UniProt O77255, T335Q); assay: as above; type: cell-based
CfEcR-DEF mutant T52Q, sequence (P28702 299-449): as the sequence (P28702 299-449, further chain) above
CfEcR-DEF mutant T52Q, sequence (O77255 entry or part of it T335Q): as the sequence (O77255 entry or part of it T335W) above, with W117Q counted along it
In short: as §4

CfEcR-DEF mutant L223Y = CfEcR-DEF mutant L223Y (Choristoneura fumiferana, UniProt O77255, L506Y); assay: as above; type: cell-based
CfEcR-DEF mutant L223Y, sequence (P28702 299-449): as the sequence (P28702 299-449, further chain) above
CfEcR-DEF mutant L223Y, sequence (O77255 entry or part of it L506Y): as the sequence (O77255 entry or part of it T335W) above, with W117T, L288Y counted along it
In short: as §4

CfEcR-DEF mutant W238L = CfEcR-DEF mutant W238L (Choristoneura fumiferana, UniProt O77255, W521L); assay: as above; type: cell-based
CfEcR-DEF mutant W238L, sequence (P28702 299-449): as the sequence (P28702 299-449, further chain) above
CfEcR-DEF mutant W238L, sequence (O77255 entry or part of it W521L): as the sequence (O77255 entry or part of it M502W) above, with W296M, W315L counted along it
In short: as §4

CfEcR-DEF mutant T52G = CfEcR-DEF mutant T52G (Choristoneura fumiferana, UniProt O77255, T335G); assay: as above; type: cell-based
CfEcR-DEF mutant T52G, sequence (O77255 entry or part of it T335G): as the sequence (O77255 entry or part of it M502W) above, with T129G, W296M counted along it
CfEcR-DEF mutant T52G, sequence (P28702 298-449, further chain): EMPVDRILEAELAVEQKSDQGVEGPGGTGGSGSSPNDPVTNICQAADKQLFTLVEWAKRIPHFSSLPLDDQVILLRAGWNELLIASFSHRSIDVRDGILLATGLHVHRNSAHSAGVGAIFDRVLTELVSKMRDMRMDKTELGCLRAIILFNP
In short: as §4

CfEcR-DEF mutant I51M = CfEcR-DEF mutant I51M (Choristoneura fumiferana, UniProt O77255, I334M); assay: as above; type: cell-based
CfEcR-DEF mutant I51M, sequence (P28702 299-449): as the sequence (P28702 299-449, further chain) above
CfEcR-DEF mutant I51M, sequence (O77255 entry or part of it I334M): as the sequence (O77255 entry or part of it M502W) above, with I128M, W296M counted along it
In short: as §4

CfEcR-DEF mutant M125I = CfEcR-DEF mutant M125I (Choristoneura fumiferana, UniProt O77255, M408I); assay: as above; type: cell-based
CfEcR-DEF mutant M125I, sequence (O77255 entry or part of it M408I): as the sequence (O77255 entry or part of it M502W) above, with M202I, W296M counted along it
CfEcR-DEF mutant M125I, sequence (P28702 299-449, further chain): as the sequence (P28702 299-449, further chain) above
In short: as §4

CfEcR-DEF mutant W238M = CfEcR-DEF mutant W238M (Choristoneura fumiferana, UniProt O77255, W521M); assay: as above; type: cell-based
CfEcR-DEF mutant W238M, sequence (P28702 299-449): as the sequence (P28702 299-449, further chain) above
CfEcR-DEF mutant W238M, sequence (O77255 entry or part of it W521M): as the sequence (O77255 entry or part of it M502W) above, with W296M, W315M counted along it
In short: as §4

CfEcR-DEF mutant F48K = CfEcR-DEF mutant F48K (Choristoneura fumiferana, UniProt O77255, F331K); assay: as above; type: cell-based
CfEcR-DEF mutant F48K, sequence (O77255 entry or part of it F331K): as the sequence (O77255 entry or part of it T335W) above, with F113K, W117T counted along it
CfEcR-DEF mutant F48K, sequence (P28702 299-449, further chain): as the sequence (P28702 299-449, further chain) above
In short: as §4

CfEcR-DEF mutant M125S = CfEcR-DEF mutant M125S (Choristoneura fumiferana, UniProt O77255, M408S); assay: as above; type: cell-based
CfEcR-DEF mutant M125S, sequence (P28702 299-449): as the sequence (P28702 299-449, further chain) above
CfEcR-DEF mutant M125S, sequence (O77255 entry or part of it M408S): as the sequence (O77255 entry or part of it T335W) above, with W117T, M190S counted along it
In short: as §4

CfEcR-DEF mutant M219Y = CfEcR-DEF mutant M219Y (Choristoneura fumiferana, UniProt O77255, M502Y); assay: as above; type: cell-based
CfEcR-DEF mutant M219Y, sequence (P28702 299-449): as the sequence (P28702 299-449, further chain) above
CfEcR-DEF mutant M219Y, sequence (O77255 entry or part of it M502Y): as the sequence (O77255 entry or part of it M502W) above, with W296Y counted along it
In short: as §4

[1] = tested on: CfEcR-DEF mutant V107I/Y127E; assay: as above; type: cell-based, Choristoneura fumiferana; parameters: Concentration (mM) at max FI: unit not given here
Protocol: as §1
as §2, with “The contents of the transfection mix were mixed in a vortex mixer and let stand at room temperature for 30 minutes. At the end of incubation, 15 μL of transfection mix was added to the cells. The cells were maintained at 37° C. and 5% CO2 for 48 hours in 5% FBS.” left out
Reporter Assays: Cells were harvested 40 hours after adding ligands. […] Luciferase activity was measured using Dual-Luciferase reporter assay system from Promega Corporation following the manufacturer's instructions. Fold induction (FI) activities were calculated by dividing relative light units (“RLU”) in ligand treated cells with RLU in DMSO treated cells (untreated control).

[2] = NIH3T3, 40 h, read-out: Rel Max FI

Cc1cc(C)cc(C(=O)N(NC(=O)c2cccc(C(C)C)c2C)C(C)(C)C)c1 [RG-102362, 3,5-Dimethyl-benzoic acid N-tert-butyl-N′-(3-isopropyl-2-methyl-benzoyl)-hydrazide] gave a melting point of 182.5 °C.
In the case of CCc1c(OC)cccc1C(=O)NN(C(=O)c1cc(C)cc(C)c1)C(C)(C)C [RG-102240, N-(2-ethyl-3-methoxybenzoyl)-N′-(3,5-dimethylbenzoyl)-N′-tert-butylhydrazine], the “GS-E ligand max FI (relative to DMSO)” value (CfEcR-DEF mutant L132N) was 785, the “Concentration (mM) at max FI” value (CfEcR-DEF mutant L132N; GS-E ligand) was 33.30 mM and the “GS-E ligand max FI (relative to DMSO)” value (CfEcR-DEF mutant F109P) was 1. The “Concentration (mM) at max FI” value (CfEcR-DEF mutant F109P; GS-E ligand) was 10.00 mM, the “GS-E ligand max FI (relative to DMSO)” value (CfEcR-DEF mutant I51N) was 1 and the “Concentration (mM) at max FI” value (CfEcR-DEF mutant I51N; GS-E ligand) was 33.30 mM. The pEC50 (CfEcR-DEF mutant T52W) was 4.74, the Emax (CfEcR-DEF mutant T52W; [2]) was 100% and the pEC50 (CfEcR-DEF mutant M219W) was 5.47. For the same compound, the Emax (CfEcR-DEF mutant M219W; [2]) was 100%, the pEC50 (CfEcR-DEF mutant F48R) was 5.14 and the Emax (CfEcR-DEF mutant F48R; [2]) was 100%. For the same compound, the pEC50 (CfEcR-DEF mutant M125N) was 5.01, the Emax (CfEcR-DEF mutant M125N; [2]) was 100% and the pEC50 (CfEcR-DEF mutant M219K) was 5.54. For the same compound, the Emax (CfEcR-DEF mutant M219K; [2]) was 100%, the pEC50 (CfEcR-DEF mutant T52Q) was 5.53 and the Emax (CfEcR-DEF mutant T52Q; [2]) was 100%. It also gave a pEC50 (CfEcR-DEF mutant L223Y) of 5.50, an Emax (CfEcR-DEF mutant L223Y; [2]) of 100% and a pEC50 (CfEcR-DEF mutant W238L) of 4.95. For the same compound, the Emax (CfEcR-DEF mutant W238L; [2]) was 100%, the pEC50 (CfEcR-DEF mutant T52G) was 5.45 and the Emax (CfEcR-DEF mutant T52G; [2]) was 100%. For the same compound, the pEC50 (CfEcR-DEF mutant I51M) was 5.40, the Emax (CfEcR-DEF mutant I51M; [2]) was 100% and the pEC50 (CfEcR-DEF mutant M125I) was 5.87. The Emax (CfEcR-DEF mutant M125I; [2]) was 100%, the pEC50 (CfEcR-DEF mutant W238M) was 4.98 and the Emax (CfEcR-DEF mutant W238M; NIH3T3, 40 h, read-out: Rel MaxFI) was 100%. For the same compound, the pEC50 (CfEcR-DEF mutant F48K) was 4.96, the Emax (CfEcR-DEF mutant F48K; [2]) was 100% and the pEC50 (CfEcR-DEF mutant M125S) was 4.91. It also gave an Emax (CfEcR-DEF mutant M125S; [2]) of 100%, a pEC50 (CfEcR-DEF mutant M219Y) of 6.09 and an Emax (CfEcR-DEF mutant M219Y; [2]) of 100%. For the same compound, the “GS-E ligand max FI (relative to DMSO)” value [1] was 3146 and the “Concentration (mM) at max FI” value ([1]; GS-E ligand) was 10.
